{"source": "paper PMC10969742", "about": "“A Phase I Study of the Oral Dual-Acting Pan-PI3K/mTOR Inhibitor Bimiralisib in Patients with Advanced Solid Tumors” (Cancers, 2024)", "key": {"advanced solid tumors": {"tested_on": "advanced solid tumors", "assay": "Efficacy: objective tumor response per RECIST 1.1", "format": "in vivo, human", "description": "Efficacy of treatment was determined by measuring reported lesions at baseline and after every 2 cycles."}, "[1]": {"tested_on": "head and neck squamous cancer with loss of function NOTCH1T1997M mutations", "settings": "eight patients, intermittent bimiralisib regimen; cited from earlier work"}, "[2]": {"tested_on": "patients with advanced solid tumors", "assay": "Phase 1 3 + 3 dose escalation: DLTs and MTD determination", "format": "in vivo", "description": "The primary objective of the study was to determine the MTD of bimiralisib administered according to three different dosing schedules. Bimiralisib was formulated as 20 mg and 80 mg capsules for oral administration. The first dosing schedule to be evaluated was continuous (once daily) dosing over a 21-day cycle. […] Patients enrolled in the continuous schedule and intermittent schedule A received a single lead-in dose, administered on […] prior to the start of the first 21-day treatment cycle, to characterize single-dose pharmacokinetics. Based on the previous first-in-human trial with bimiralisib, together with the expected toxicity profile of PI3K/mTOR inhibitors, the starting dose (dose-level 1) of bimiralisib in Study PQR309-003 was set at 80 mg daily.\nEnrollment of cohorts into the dose escalation followed a typical 3 + 3 design, with escalation/de-escalation based on the dose-limiting toxicities observed as described in Table 1 and Table 2. Up to 5 dose levels were planned in the continuous schedule to a maximum of 180 mg daily. For the intermittent schedules, up to 7 dose levels were planned, to a maximum of 240 mg daily. One dose level for de-escalation was planned for all schedules. Patient cohorts, consisting initially of three patients, were enrolled depending on the safety and tolerability of the initial cohort. Patients were treated until disease progression, unacceptable toxicity, patient’s request for withdrawal, investigator judgment, or death, whichever came first.\nSafety was monitored by physical examination, vital signs, weight, electrocardiogram, ECOG performance status, laboratory evaluations (including glucose monitoring), and patient self-reported mood questionnaires, as well as AEs. All AEs were coded with NCI Common Terminology Criteria for Adverse Events (CTCAE) v4.03 [27]. The MTD was defined as the maximum dose level at which ≤1/6 patients have DLTs. A DLT was defined by the occurrence of grade 3 or 4 AE that is possibly, probably, or definitely related to bimiralisib within the first 21 days of treatment. Bimiralisib treatment was interrupted if patients experienced any DLTs. If the patient derived benefit from the treatment as determined by the investigator, treatment could be resumed at a lower dose in agreement with the study sponsor."}, "[3]": {"settings": "PR patient, head and neck squamous cancer, NOTCH1T1997M, intermittent schedule A 200 mg"}}, "note": "Entries after “also recorded” stand apart in the source; their conditions may differ.", "data": [{"compound": "Nc1cc(C(F)(F)F)c(-c2nc(N3CCOCC3)nc(N3CCOCC3)n2)cn1", "note": "[bimiralisib, 5-(4,6-Dimorpholino-1,3,5-triazin-2-yl)-4-(trifluoromethyl)pyridin-2-amine]", "values": [{"measurement": "Best Overall Response: Complete response (CR), Number of Patients", "setting": "advanced solid tumors; All Schedules, n = 70", "result": "0 n (%)"}, {"measurement": "Best Overall Response: Missing (response could not be assessed), Number of Patients", "setting": "advanced solid tumors; All Schedules, n = 70", "result": "16 (22.9%) n (%)"}, {"measurement": "Best Overall Response: Non-CR/Non-PD, Number of Patients", "setting": "advanced solid tumors; All Schedules, n = 70", "result": "4 (5.7%) n (%)"}, {"measurement": "Best Overall Response: Partial response, Number of Patients", "setting": "advanced solid tumors; All Schedules, n = 70", "result": "1 (1.4%) n (%)"}, {"measurement": "Best Overall Response: Progressive disease (PD), Number of Patients", "setting": "advanced solid tumors; All Schedules, n = 70", "result": "19 (27.1%) n (%)"}, {"measurement": "Best Overall Response: Stable disease, Number of Patients", "setting": "advanced solid tumors; All Schedules, n = 70", "result": "30 (43%) n (%)"}, {"measurement": "Best Overall Response: Complete response (CR), Number of Patients", "setting": "advanced solid tumors; Continuous (n = 21)", "result": "0 n (%)"}, {"measurement": "Best Overall Response: Missing (response could not be assessed), Number of Patients", "setting": "advanced solid tumors; Continuous (n = 21)", "result": "9 (42.9%) n (%)"}, {"measurement": "Best Overall Response: Non-CR/Non-PD, Number of Patients", "setting": "advanced solid tumors; Continuous (n = 21)", "result": "0 n (%)"}, {"measurement": "Best Overall Response: Partial response, Number of Patients", "setting": "advanced solid tumors; Continuous (n = 21)", "result": "0 n (%)"}, {"measurement": "Best Overall Response: Progressive disease (PD), Number of Patients", "setting": "advanced solid tumors; Continuous (n = 21)", "result": "7 (33.3%) n (%)"}, {"measurement": "Best Overall Response: Stable disease, Number of Patients", "setting": "advanced solid tumors; Continuous (n = 21)", "result": "5 (23.8%) n (%)"}, {"measurement": "Best Overall Response: Complete response (CR), Number of Patients", "setting": "advanced solid tumors; Intermittent A, n = 25", "result": "0 n (%)"}, {"measurement": "Best Overall Response: Missing (response could not be assessed), Number of Patients", "setting": "advanced solid tumors; Intermittent A, n = 25", "result": "5 (20%) n (%)"}, {"measurement": "Best Overall Response: Non-CR/Non-PD, Number of Patients", "setting": "advanced solid tumors; Intermittent A, n = 25", "result": "1 (4%) n (%)"}, {"measurement": "Best Overall Response: Partial response, Number of Patients", "setting": "advanced solid tumors; Intermittent A, n = 25", "result": "1 (4%) n (%)"}, {"measurement": "Best Overall Response: Progressive disease (PD), Number of Patients", "setting": "advanced solid tumors; Intermittent A, n = 25", "result": "6 (24%) n (%)"}, {"measurement": "Best Overall Response: Stable disease, Number of Patients", "setting": "advanced solid tumors; Intermittent A, n = 25", "result": "12 (48%) n (%)"}, {"measurement": "Best Overall Response: Complete response (CR), Number of Patients", "setting": "advanced solid tumors; Intermittent B, n = 24", "result": "0 n (%)"}, {"measurement": "Best Overall Response: Missing (response could not be assessed), Number of Patients", "setting": "advanced solid tumors; Intermittent B, n = 24", "result": "2 (8.3%) n (%)"}, {"measurement": "Best Overall Response: Non-CR/Non-PD, Number of Patients", "setting": "advanced solid tumors; Intermittent B, n = 24", "result": "3 (12.5%) n (%)"}, {"measurement": "Best Overall Response: Partial response, Number of Patients", "setting": "advanced solid tumors; Intermittent B, n = 24", "result": "0 n (%)"}, {"measurement": "Best Overall Response: Progressive disease (PD), Number of Patients", "setting": "advanced solid tumors; Intermittent B, n = 24", "result": "6 (25%) n (%)"}, {"measurement": "Best Overall Response: Stable disease, Number of Patients", "setting": "advanced solid tumors; Intermittent B, n = 24", "result": "13 (54.2%) n (%)"}, {"measurement": "Duration of response", "setting": "advanced solid tumors; [3]", "result": 8.4, "unit": "months"}, {"measurement": "Reduction in sum of target lesions per RECIST 1.1", "setting": "advanced solid tumors; [3]", "result": 85, "unit": "%"}, {"measurement": "Time to response", "setting": "advanced solid tumors; [3]", "result": 45, "unit": "days"}, {"measurement": "Patients with PR as best overall response", "setting": "advanced solid tumors; all 70 patients", "result": 1.4, "unit": "%"}, {"measurement": "Complete response (CR)", "setting": "advanced solid tumors; all patients", "result": "No patient achieved CR"}, {"measurement": "Patients with SD", "setting": "advanced solid tumors; all patients, 30 patients", "result": 43.0, "unit": "%"}, {"measurement": "Number of partial responses", "setting": "advanced solid tumors; all patients, head and neck squamous cancer patient with NOTCH1T1997M mutation", "result": "one"}, {"measurement": "Patients with SD", "setting": "advanced solid tumors; continuous dosing", "result": 23.8, "unit": "%"}, {"measurement": "Best overall response of single patient", "setting": "advanced solid tumors; head and neck squamous cancer, loss of function NOTCH1T1997M mutation, intermittent schedule A 200 mg", "result": "partial response"}, {"measurement": "Patients with SD", "setting": "advanced solid tumors; intermittent schedule A", "result": 48.0, "unit": "%"}, {"measurement": "Patients with SD", "setting": "advanced solid tumors; intermittent schedule B", "result": 54.2, "unit": "%"}, {"measurement": "Confirmed PR, number of patients", "setting": "[1]", "result": "one"}, {"measurement": "SDs, number of patients", "setting": "[1]", "result": "three"}, {"measurement": "Maximum tolerated dose (MTD)", "setting": "[2]; continuous schedule (once daily)", "result": 80, "unit": "mg"}, {"measurement": "Dose-limiting toxicity (DLT), kind", "setting": "[2]; in vivo", "result": "grade three fatigue"}, {"measurement": "Patients with dose interruptions or discontinuation due to treatment-related AEs during first 21-day dosing cycle", "setting": "[2]; in vivo", "result": "Four of these five"}, {"measurement": "Maximum tolerated dose (MTD)", "setting": "[2]; intermittent schedules A and B, up to 200 mg", "result": "No MTD was reached; also recorded: neither intermittent schedule reached MTD"}]}]}
